In US7732468B2, “3-aryl-6-aryl-[ 1,2,4]triazolo[3,4-b][1,3,4]thiadiazoles and related compounds as activators of caspases and inducers of apoptosis and the use thereof” (Cytovia, Inc., priority 2006, dated 2010) one finds EC50 and GI50 data, which are given here for four compounds.

Common to all, as to format: cell-based
Experiment [1] deals with human lymphoma cell line Raji. Briefly: Caspase cascade activation in Raji cells. As to conditions: RAJ1 cells, 48 h incubation, read-out: caspase potency EC50 RAJ1. An outline of the steps:
(§1)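 EC50 reflects the ratio of net RFU in compound-treated wells to untreated control, where net RFU is the 3 h reading minus the T=0 control background. Cells were incubated 48 h with 0.016–10 μM compound before Ac-DEVD-R110 addition.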

The test system of experiment [2] is human hepatocellular carcinoma cell line SNU398. Briefly: Caspase cascade activation in SNU398 cells. As to conditions: SNU-398, 48 h incubation, read-out: caspase potency EC50 SNU398. The essentials:
as §1

Experiment [3] concerns human cancer cell line H1299. Briefly: Caspase cascade activation in H1299 cells. To be noted: NCI-H1299, 48 h incubation, read-out: caspase potency EC50 H1299. How it is done: Human breast cancer cell lines T-47D, human hepatocellular carcinoma cell line SNU398, human colon carcinoma cell line HCT116, human cancer cell line H11299, human Burkitt's lymphoma cell line Namalwa, human lymphoma cell line Raji, and human B cell lymphoblastoid cell line Ramos were grown according to media component mixtures designated by American Type Culture Collection+10% FCS (Invitrogen Corporation), in a 5% CO2-95% humidity incubator at 37° C. T-47D and H1299 cells were maintained at a cell density between 50 and 80% confluency at a cell density of 0.1 to 0.6×10^6 cells/mL. Cells were harvested at 600×g and resuspended at 0.65×10^6 cells/mL into appropriate media+10% FCS. An aliquot of 22.5 μL of cells was added to a well of a 384-well microtiter plate containing 2.5 μL of a 10% DMSO in RPMI-1640 media solution containing 0.16 to 100 μM of 6-(3,4-dimethoxyphenyl)-3-(2-methoxyphenyl)-[1,2,4]triazolo[3,4-b][1,3,4]thiadiazole or other test compound (0.016 to 10 μM final). An aliquot of 22.5 μL of cells was added to a well of a 384-well microtiter plate containing 2.5 μL of a 10% DMSO in RPMI-1640 media solution without test compound as the control sample. The samples were mixed by agitation and then incubated at 37° C. for 48 h in a 5% CO2-95% humidity incubator. After incubation, the samples were removed from the incubator and 25 μL of a solution containing 14 μM of N-(Ac-DEVD)-N′-ethoxycarbonyl-R110 (SEQ ID No.:1) fluorogenic substrate (Cytovia, Inc.; WO99/18856), 20% sucrose (Sigma), 20 mM DTT (Sigma), 200 mM NaCl (Sigma), 40 mM Na PIPES buffer pH 7.2 (Sigma), and 500 μg/mL lysolecithin (Calbiochem) was added. The samples were mixed by agitation and incubated at room temperature. Using a fluorescent plate reader (Model SPECTRAfluor Plus, Tecan), an initial reading (T=0) was made approximately 1-2 min after addition of the substrate solution, employing excitation at 485 nm and emission at 530 nm, to determine the background fluorescence of the control sample. After the 3 h incubation, the samples were read for fluorescence as above (T=3 h).
The Relative Fluorescence Unit values (RFU) were used to calculate the sample readings as follows: RFU(T=3h)−Control RFU(T=0)=Net RFU(T=3h)
The activity of caspase cascade activation was determined by the ratio of the net RFU value for 6-(3,4-dimethoxyphenyl)-3-(2-methoxyphenyl)-[1,2,4]triazolo[3,4-b][1,3,4]thiadiazole (Example I) or other test compound to that of control samples. The EC50 (nM) was determined by a sigmoidal dose-response calculation (Prism 3.0, GraphPad Software Inc.).

Experiment [4] concerns Human breast cancer cell lines T-47D. In words: Inhibition of cell proliferation (GI50, CellTiter-Glo) in T-47D cells. To be noted: T47D cells, 48 h incubation. The method, then: (§2) Human breast cancer cell lines T-47D, MX1 and MDAMB435, human colon carcinoma cell line HCT116, human leukemia cell line K562, human lymphoma cell line Raji, human B cell lymphoblastoid cell line Ramos, and human Burkitt's lymphoma cell line Namalwa were grown and harvested as in Example 14. An aliquot of […] of cells (4.4×10^4 cells/mL) was added to a well of a 96-well microtiter plate containing 5 μL of a 10% DMSO in RPMI-1640 media solution containing 10 nM to 100 μM of 6-(3,4-dimethoxyphenyl)-3-(2-methoxyphenyl)-[1,2,4]triazolo[3,4-b][1,3,4]thiadiazole (1 nM to 10 μM final). An aliquot of 45 μL of cells was added to a well of a 96-well microtiter plate containing 5 μL of a 10% DMSO in RPMI-1640 media solution without compound as the control sample for maximal cell proliferation (LMax). The samples were mixed by agitation and then incubated at 37° C. for 48 h in a 5% CO2-95% humidity incubator. After incubation, the samples were removed from the incubator and 25 μL of CellTiter-Glo™ reagent (Promega) was added. The samples were mixed by agitation and incubated at room temperature for 10-15 min. Plates were then read using a luminescent plate reader (Model SPECTRAfluor Plus, Tecan) to give Ltest values.
(§3) The samples were mixed by agitation and then incubated at 37° C. for 0.5 h in a 5% CO2-95% humidity incubator. After incubation, the samples were removed from the incubator and 25 μL of CellTiter-Glo™ reagent (Promega) was added. The samples were mixed by agitation and incubated at […] 10-15 min at room temperature in a 5% CO2-95% humidity incubator. Fluorescence was read as above, (LStart) defining luminescence for initial cell number used as baseline in GI50 determinations.
(§4) GI50 (dose for 50% inhibition of cell proliferation) is the concentration where [(LTest−LStart)/(LMax−LStart)]=0.5.
(ATP-based viability assays read luminescence as a measure of living cells.)

The test system of experiment [5] is human B cell lymphoblastoid cell line Ramos. Briefly: Caspase cascade activation in Ramos cells. As to conditions: 48 h incubation, read-out: caspase potency EC50 RAMOS. The essentials: as §1
Experiment [6] concerns human colon carcinoma cell line HCT116. Briefly: Inhibition of cell proliferation (GI50) in HCT116 cells. As to conditions: HCT 116 cells, 48 h incubation.
For experiment [7] the test system is unchanged. In words: Caspase cascade activation in HCT116 cells. As to conditions: HCT-116, 48 h incubation, read-out: caspase potency EC50 HCT116. An outline of the steps:
as §1

In experiment [8] the test system is human leukemia cell line K562. Briefly: Inhibition of cell proliferation (GI50) in K562 cells. To be noted: 48 h incubation.
Experiment [9] has as its system human Burkitt's lymphoma cell line Namalwa. Briefly: Caspase cascade activation in Namalwa cells. As to conditions: Burkitts lymphoma cell, 48 h incubation, read-out: caspase potency EC50 Namalwa. The essentials: as §1
Experiment [10] concerns Human breast cancer cell lines T-47D. In words: Caspase cascade activation (Ac-DEVD-R110 fluorogenic substrate) in T-47D cells. To be noted: T47D cells, 48 h incubation, read-out: caspase potency EC50 T47D. The essentials:
as §1

Experiment [11] deals with human B cell lymphoblastoid cell line Ramos. In words: Inhibition of cell proliferation (GI50) in Ramos cells. As to conditions: 48 h incubation.
The test system of experiment [12] is human Burkitt's lymphoma cell line Namalwa. Briefly: Inhibition of cell proliferation (GI50) in Namalwa cells. As to conditions: Burkitts lymphoma cell, 48 h incubation.
The subject of experiment [13] is Human breast cancer cell lines MDAMB435. In words: Inhibition of cell proliferation (GI50) in MDAMB435 cells. To be noted: MDA MB 435 cells, 48 h incubation. The method, then: as §2, §3, §4
Experiment [14] deals with human lymphoma cell line Raji. In words: Inhibition of cell proliferation (GI50) in Raji cells. To be noted: 48 h incubation.
The test system of experiment [15] is Human breast cancer cell lines MX1. Briefly: Inhibition of cell proliferation (GI50) in MX1 cells. As to conditions: 48 h incubation. How it is done:
as §2, §3, §4

SMILES strings stand for the structures.

As a reminder, the EC50 is the concentration at which the effect is half-maximal. A word on the GI50: it is the concentration at which growth is held to half of that of the control. Low readings indicate more potent growth inhibition, high ones less potent growth inhibition. Regarding `COc1ccc(-c2nn3c(-c4ccccc4C)nnc3s2)cc1OC` [E, 6-(3,4-Dimethoxyphenyl)-3-o-tolyl-[1,2,4]triazolo[3,4-b][1,3,4]thiadiazole], the EC50 in experiment [1] was 274 nM; in experiment [2], 507 nM; in [3], 3000 nM; in experiment [5], 235 nM; in experiment [7], 5020 nM; in experiment [9], 253 nM. Also, the EC50 in experiment [10] was determined as 561 nM. Further, the GI50 in [4] turned out to be 3850 nM; in experiment [6], 6220 nM; in [8], 2490 nM; in experiment [11], 3000 nM; in [12], 7870 nM; in [13], 894 nM. The GI50 in experiment [14] turned out to be 9400 nM; in [15], 4000 nM.
Regarding `COc1ccc(-c2nn3c(-c4ccccc4Cl)nnc3s2)cc1OC` [F, 3-(2-Chlorophenyl)-6-(3,4-dimethoxyphenyl)-[1,2,4]triazolo[3,4-b][1,3,4]thiadiazole], the EC50 in experiment [1] was 5270 nM; in experiment [2] it was 4460 nM; in experiment [3], 5310 nM; in experiment [5], 5300 nM; in experiment [7] it was 5160 nM; in experiment [9], 5320 nM. Further, the EC50 in experiment [10] is 2690 nM. In addition, the GI50 in experiment [4] worked out at 4030 nM; in experiment [6], 7920 nM; in experiment [8] it was 2730 nM; in experiment [11] it was 4000 nM; in experiment [12], 9040 nM; in experiment [13] it was 1070 nM. The GI50 was 8000 nM in experiment [14] and 4000 nM in experiment [15].
As for `COc1ccccc1-c1nnc2sc(-c3ccc(Br)cc3)nn12` [H, 6-(4-Bromophenyl)-3-(2-methoxyphenyl)-[1,2,4]triazolo[3,4-b][1,3,4]thiadiazole], the EC50 was determined as 501 nM in experiment [1]; 261 nM in experiment [2]; 733 nM in experiment [3]; 253 nM in experiment [5]; 537 nM in experiment [7]; 344 nM in [9]. Besides, the EC50 in [10] worked out at 563 nM. In addition, the GI50 in experiment [4] came to 217 nM; in experiment [6], 844 nM; in [8], 626 nM; in experiment [11], 120 nM; in experiment [12] it was 520 nM; in experiment [13], 48 nM. In addition, the results for the GI50 in experiment [14] and in experiment [15] were 700 nM and 400 nM, respectively.
Turning to `COc1ccc(-c2nn3c(-c4ccccc4OC)nnc3s2)cc1OC` [I, 6-(3,4-dimethoxyphenyl)-3-(2-methoxyphenyl)-[1,2,4]triazolo[3,4-b][1,3,4]thiadiazole], the concentration giving a half-maximal response (EC50) turned out to be 521 nM in experiment [1]; 300 nM in experiment [2]; 808 nM in experiment [3]; 349 nM in experiment [5]; 523 nM in [7]; 412 nM in [9]. In addition, in experiment [10], the EC50 amounted to 563 nM. The concentration for 50% growth inhibition (GI50) in [4] was 261 nM; in [6] it was 2000 nM; in [8], 2080 nM; in [11], 2000 nM; in experiment [12], 2000 nM; in [13], 136 nM. The GI50 in experiment [14] amounted to 2000 nM; in [15] it was 1030 nM.
